{"source": "patent US20130158070A1", "about": "“CONJUGATES OF POLYUNSATURATED FATTY ACIDS AND AMINE-CONTAINING COMPOUNDS AND USES THEREOF” (priority 2010, published 2013)", "assay_type_in_all_cases": "in vivo", "key": {"[1]": {"test_system": "TNBS-induced ulcerative colitis", "assay": "TNBS-induced colitis (ulcerative colitis) in rats", "protocol": "Exemplary conjugates were tested for the effect on inflammatory bowel disease IBD (ulcerative colitis) in rats.\nBriefly, ulcerative colitis was induced by tri-nitrobenzene sulfunic acid (TNBS) as described in the literature. Rats were divided into 4 groups, (−) sham (healthy), (+) control ulcerative colitis (UC, not treated), UC treated with the tested conjugate (25 mg/kg), and UC treated with 5-amino salicylic acid (5-ASA 25 mg/kg). The tested conjugate and 5-ASA were administered rectally during all the period of the experiment. At the end of the experiment animals were sacrificed and the colon was isolated to test the severity of the inflammation. The severity of the inflammation was tested by measurement of the myeloperoxidase activity (MPO activity) in the inflamed area of the colon."}, "DNBS-induced colitis": {"test_system": "DNBS-induced colitis", "assay": "DNBS-induced experimental colitis in mice, oral administration", "settings": "day four after DNBS, MWL001 50 mg/kg oral daily", "protocol": "In this study, the effect of MWL001 on pro-inflammatory mediators in DNBS-induced experimental colitis in mice was evaluated. In particular it was observed that there was no expression of TNF-α, CD4, TGF-13, CD25 in the colon tissue from sham-treated mice. MWL001 and DEX were administered orally and daily starting at six hours after the DNBS challenge.\nColitis was induced with a very low dose of 2,4-dinitrobenzene sulfonic acid (DNBS) (4 mg per mouse) by using a modification of the method first described in mice. […] Mice were anesthetized by Enflurane. DNBS (4 mg in 100 μl of 50% ethanol) was injected into the rectum through a catheter inserted 4.5 cm proximally to the anus. The carrier alone (100 μl of 50% ethanol) was administered in control experiments. Thereafter, the animals were kept for 15 minutes in a Trendelenburg position to avoid reflux. […] On Day four, the animals were weighed and anaesthetized with chloral hydrate, and their abdomen was opened by a midline incision. The colon was removed, freed from surrounding tissues, opened along the antimesenteric border and processed for histology.\nTNF-α and IL-6 levels were evaluated and colon tissues collected at four days after DNBS administration. Briefly, portions of terminal colon were homogenized as previously described in phosphate-buffered saline (PBS, ICN Biomedicals, Milan, Italy) containing two mmol/L of phenyl-methyl sulfonyl fluoride (PMSF, Sigma Chemical Co.). The assay was carried out using a colorimetric, commercial kit (R&D system Milan, Italy) according to the manufacturer instructions. All cytokines determinations were performed in duplicate serial dilutions.\nAt four days after DNBS administration, colon tissues were fixed in 10% (w/v) PBS-buffered formaldehyde and 7 μm sections were prepared from paraffin embedded tissues. After deparaffinization, endogenous peroxidase was quenched with 0.3% (v/v) hydrogen peroxide in 60% (v/v) methanol for 30 min. The sections were permeabilized with 0.1% (w/v) Triton X-100 in PBS for 20 min. Non-specific adsorption was minimized by incubating the section in 2% (v/v) normal goat serum in PBS for 20 min. Endogenous biotin or avidin binding sites were blocked by sequential incubation for 15 min with biotin and avidin (Vector Laboratories, Burlingame, Calif.), respectively. Sections were incubated overnight with: 1) purified polyclonal antibody directed towards CD4 (Santa Cruz Biotechnology, 1:500 in PBS, v/v) or 2) with purified anti-CD25 (Santa Cruz Biotecnology 1:500 in PBS, w/v) or 3) with anti- TNF-α polyclonal antibody (Santa Cruz Biotechnology, N-19:sc-1350, 1:500 in PBS, v/v) or 4) with anti-TGF-β polyclonal antibody (Santa Cruz, 1:500 in PBS, v/v).\nSections were washed with PBS, and incubated with a secondary antibody. Specific labelling was detected with a biotin-conjugated goat anti-rabbit IgG and avidin-biotin peroxidase complex (Vector Laboratories, Burlingame, Calif.)."}, "rat QT and QTc intervals": {"test_system": "rat QT and QTc intervals", "assay": "Cardio toxicity: QT prolongation, ECG in anesthetized rats", "source_text": "The QT interval (time from beginning of the QRS complex and to the end of the T wave) of the ECG is a measure of the duration of ventricular depolarization and repolarization. When ventricular repolarization is delayed and the QT interval is prolonged, there is an increased risk of ventricular tachyarrhythmia, including torsade de points (potentially fatal polymorphic ventricular tachycardia). As the QT interval has an inverse relationship to heart rate, the measured QT intervals are generally corrected for heart rate in order to determine whether they are prolonged relative to the baseline.\nThe initial evaluation of cardiac safety by ECG measurements focuses on QTc duration of MWL001 50 mg/ml concentration.\nMale Sprague-Dawley rats (280-300 g of weight) were used for electrocardiographic measurements at basal conditions as well as medicated with QND and MWL. […] Electrocardiograms were recorded using disk electrodes fitted subcutaneously near the right and left axial regions and at the xiphoid cartilage and secured by surgical clips for standard Lead II recording. […] All of the data was recorded (AdInstruments PowerLab 16/30, Australia) for off line analysis.\nHeart rate (RR interval), QT interval and QTc (corrected QT interval) were calculated by ECG analysis module in the LabChart 7.2.1 software and manually screened by trained technicians. […]"}}, "data": [{"compound": "CCC=CCC=CCC=CCC=CCC=CCC=CCCC(=O)N1CC(O)CC1C(=O)O", "note": "(centres unmarked) [MWL001]", "values": [{"measurement": "body weight", "setting": "[1]; UC rats, throughout assay period", "value": "no decrease"}, {"measurement": "MPO activity (severity index)", "setting": "[1]; rectal, 50 mg/kg as printed, compared to 5-ASA, inflamed colon", "value": "significant decrease"}, {"measurement": "colon morphology and inflammation signs (images)", "setting": "[1]; ulcerated colon segment, compared to non-treated or 5-ASA treated", "value": "normal clear anatomic morphology and a significant decrease in inflammation signs"}, {"measurement": "IL-6 colon levels", "setting": "DNBS-induced colitis; colorimetric kit", "value": "significant reduction"}, {"measurement": "TNF-α colon levels", "setting": "DNBS-induced colitis; colorimetric kit", "value": "significant reduction"}, {"measurement": "expression of CD4 in colon tissue", "setting": "DNBS-induced colitis; immunostaining", "value": "significantly reduced"}, {"measurement": "expression of CD25 in colon tissue", "setting": "DNBS-induced colitis; immunostaining", "value": "significantly reduced"}, {"measurement": "expression of TGF-β in colon tissue", "setting": "DNBS-induced colitis; immunostaining", "value": "significantly reduced"}, {"measurement": "expression of TNF-α in colon tissue", "setting": "DNBS-induced colitis; immunostaining", "value": "significantly reduced"}, {"measurement": "cardiotoxic effect", "setting": "rat QT and QTc intervals; high doses, short term of 2-3 hr, compared to Quinidine", "value": "no cardiotoxic effect"}, {"measurement": "prolongation of the QTc interval", "setting": "rat QT and QTc intervals; i.v. 50-166 mg/kg, two hr period after injection", "value": "did not result in prolongation"}]}]}
